In brackets after ≈: the same amount, converted by molar mass. Where two headings read alike, the source gives them in different places. Starred links: 1 amine or outer side, 2 acyl side, 3 side chain; linkers in the order of their positions; H or OH if unused. Positions of bridges follow the written chain, without caps; N, C: chain ends. Non-standard residues stand in square brackets, D forms with d. Residues, ends and D or L forms follow the SMILES beside them. *: point of attachment. hTyr(3S-OH,4S-OH,3'-OSO3H) = N[C@H](C(=O)O)[C@H](O)[C@@H](O)c1ccc(O)c(OS(=O)(=O)O)c1; Orn(4R-OH,5R-OH) = O=C([C@H](C[C@@H](O)[C@@H](O)N[*:3])N[*:1])[*:2]; Pro(3S-OH,4S-Me) = C[C@H]1CN[C@H](C(=O)O)[C@H]1O; X1 = CCCCCOc1ccc(-c2cc(-c3ccc(C(=O)*)cc3)no2)cc1; Gln(3R-OH) = NC(=O)C[C@@H](O)[C@H](N)C(=O)O; Hyp = O=C(O)[C@@H]1C[C@@H](O)CN1
Assays:
[1] = system: strain ATCC®7349 of C. tropicalis; assay: Sensitivity test by HCA microscopy (chitin level, Calcofluor White; cell count); type: cell-based, Candida tropicalis; details: SC medium; for decrease of the number of cells / increase of the chitin level in the wall of the cells: vs cells in the absence of antifungal agent; for increase of the chitin level in the wall of the cells: concentration gradient of Table 1
Procedure: (§1) The strains of Candida were incubated beforehand at 30° C. overnight in a yeast extract medium—peptone dextrose (YPD) (1% bacto peptone, 0.5% yeast extract, 2% glucose, 1.5% agar).
(§2) Yeast colonies were then removed from YPD medium plates and suspended in a 0.9% NaCl saline solution, in which the cell concentration was estimated by optical microscopy using Kova counting slides.
(§3) A dilution was performed to obtain 15 ml of an inoculum at 3×10^6 CFU/ml, in a synthetic complete (SC) medium at pH 7 (2% glucose, 0.5% ammonium sulfate, 0.17% nitrogen-containing yeast base, 0.2% synthetic complete mixture, and 10% HEPES 1.5M pH 7.2) for C. albicans, C. parapsilosis, C. tropicalis and C. krusei, and in a solution of RPMI 1640 pH 7.3 (10% HEPES 1M pH 7.2) for C. glabrata, so as to reduce the formation of septa and clusters.
(§4) 1 ml of inoculum was then added to 2 ml of antifungal solution prepared in an SC or RPMI medium depending on the species of fungus, so as to obtain a final concentration of yeast of 10^6 CFU/ml and the desired concentration of antifungal agent according to table 1.
(§5) After homogenisation, the cultures were placed at 30° C. at 200 rpm, with the exception of cultures of C. glabrata, which were placed at 35° C. at 200 rpm, and incubated for a period of 6.5 h or 24 h.
(§6) After incubation, 100 μl of the culture of fungi obtained above were transferred in triplicate to 96-well plates, and 2.5 μl of Calcofluor White (CFW) were added to each well so as to mark the chitin of the cell walls of the yeasts.
(§7) A step of acquiring images by automated fluorescence microscopy (ScanR screening station, Olympus), using a 40× lens and a CFW filter, made it possible to obtain 30 images per well so as to capture enough cells to provide statistically significant data. These images were analysed by software (ScanR analysis software, Olympus). Firstly, the background noise was processed so as to improve the contrast between the fluorescence of the yeasts and background noise. A pixel threshold was then defined. Segmentation of the fluorescent elements present in each of the acquired images was then performed using an algorithm predefined in the software, making it possible to determine the limit of each element on the basis of the fluorescence intensity of said element. A size parameter was then applied to select the yeasts and eliminate the aggregates and the fluorescent debris.
(§8) Each element then corresponding to a yeast, it was thus possible, on the basis of these elements predefined beforehand, to define the fluorescence intensity for each of the yeasts, this intensity being directly correlated with the chitin content of their wall.
(§9) On the basis of said defined elements, it was also possible to automatically count the yeasts,
The strain ATCC®7349 of C. tropicalis was cultivated as described in paragraph I of the Examples section so as to obtain an inoculum at 3×10^6 CFU/ml in 15 ml of SC medium.
(§10) 2 ml of fluconazole solution prepared in the SC medium were then added to 1 ml of this inoculum so as to obtain a final concentration of yeast of 10^6 CFU/ml and of 16 μg/ml in fluconazole.
(§11) The inoculum was treated in the same way so as to obtain cultures of 10^6 CFU/ml and the following concentrations of fluconazole: 0.015 μg/ml, 0.031 μg/ml, 0.062 μg/ml, 0.125 μg/ml, 0.25 μg/ml, 0.5 μg/ml, 1 μg/ml, 2 μg/ml, 4 μg/ml, 8 μg/ml, 16 μg/ml.
After incubation for 24 h at 30° C. with stirring at 200 rpm, 100 μl of each culture were removed and transferred to 96-well plates. This procedure was performed in triplicate, and 2.5 μl of CFW were then added to each well.
(§12) The chitin level in the cell wall of the yeasts was then measured by […] analysis (HCA) microscopy, as described in paragraph II of the Examples section, in triplicate for each condition of concentration of fluconazole and without fluconazole. […]

[2] = system: strain ATCC®22019 of C. parapsilosis; assay: Etest method (MIC); type: cell-based, Candida parapsilosis; details: for MIC: Lodderomyces parapsilosis, read-out: MIC (Etest method)
Procedure: (§13) The Etest® method is a commercial test for determining the sensitivity of a strain, most frequently used routinely in clinical mycology laboratories.
(§14) The Etest® tests were performed according to the manufacturer's instructions. After distributing a standardised Mac Farland 0.5 inoculum (equivalent of […]) over plates of RPMI medium, said plates were incubated for 24 h at 35° C., with the exception of C. glabrata in which case the incubation was extended to 48 h so as to be able to determine the minimum inhibitory concentration (MIC).
(§15) The results of the MICs obtained were interpreted in accordance with the tables of the CLSI (Clinical and Laboratory Standards Institute) and/or of EUCAST (European Committee on Antimicrobial Susceptibility Testing) (Arendrup M C, Cuenca-Estrella M, Lass-Flörl C, Hope W W (2014) Breakpoints for antifungal agents: an update from EUCAST focussing on echinocandins against Candida spp and triazoles against Aspergillus spp. Drug Resist Updat 16(6):81-95. doi:10.1016/j.drup.2014.01.001) (cf. Table 2 taken from Maubon D, Garnaud C, Calandra T, et al. (2014) Resistance of Candida spp. to antifungal drugs in the ICU: where are we now? Intensive Care Med. doi: 10.1007/s00134-014-3404-7) which list the clinical thresholds (CBPs) for the most common species of yeast of the genus Candida as a function of different antifungal agents, or according to the table of epidemiological thresholds (ECVs).

[3] = system: strain ATCC®22019 of C. parapsilosis; assay: Sensitivity test by HCA microscopy (chitin level, Calcofluor White; cell count); type: cell-based, Candida parapsilosis; details: SC medium; for decrease of the number of cells / increase of the chitin level in the wall of the cells: vs cells in the absence of antifungal agent
Procedure: as §1, §2, §3, §4, §5, §6, §7, §8, §9
The strain ATCC®22019 of C. parapsilosis was cultivated as described in paragraph I of the Examples section so as to obtain an inoculum at 3×10^6 CFU/ml in 15 ml of SC medium.
as §10, §11
After incubation for 6.5 h at 30° C. with stirring at 200 rpm, 100 μl of each culture were removed and transferred to 96-well plates. This procedure was performed in triplicate, and 2.5 μl of CFW were then added to each well.
as §12

[4] = system: strain ATCC®7349 of C. tropicalis; assay: Etest method (MIC); type: cell-based, Candida tropicalis; details: for MIC: Candida tropicalis, read-out: MIC (Etest method)
Procedure: as §13, §14, §15

[5] = ATCC22019, RPMI medium plates, 24 h at 35° C.
[6] = RPMI medium plates, 24 h at 35° C.
[7] = 6.5 h at 30° C., concentration gradient of Table 1
[8] = ATCC7349, RPMI medium plates, 24 h at 35° C.

With `OC(Cn1cncn1)(Cn1cncn1)c1ccc(F)cc1F` [fluconazole] the “phenotype of the strain with respect to the antifungal agent (HCA)” value (“phenotype of the strain” for short) ([1]; 24 h at 30° C.) was “sensitive (an increase in the chitin level greater than or equal to 20% is observed compared to the chitin level of a population of cells of said fungus in the absence of antifungal agent, as well as a decrease in the number of cells of at least 0.3 log)”, the “decrease of the number of cells” value ([1]; 24 h at 30° C.) was “at least 0.3 log” and the “increase of the chitin level in the wall of the cells” value (from here on “increase of the chitin level”) ([1]; 24 h at 30° C.) was “greater than or equal to 20%”. For the same compound, the MIC [2, 5] was 1 µg/mL (≈ 3.27 µM), the “phenotype by Etest MIC, interpretation by the EUCAST and/or CLSI tables” value (“phenotype by Etest MIC, interpretation” for short) [2, 6] was “sensitive” and the “phenotype of the strain” value ([3]; 6.5 h at 30° C.) was “sensitive (an increase in the chitin level greater than or equal to 20% is observed compared to the chitin level of a population of cells of said fungus in the absence of antifungal agent, as well as a decrease in the number of cells of at least 0.3 log)”. The “decrease of the number of cells” value ([3]; 6.5 h at 30° C.) was “at least 0.3 log”, the “increase of the chitin level” value [3, 7] was “greater than or equal to 20%” and the MIC [4, 8] was 0.38 µg/mL (≈ 1.24 µM). For the same compound, the “phenotype by Etest MIC, interpretation” value [4, 6] was “sensitive”.

With `CCCCCOc1ccc(-c2cc(-c3ccc(C(=O)N[C@H]4C[C@@H](O)[C@@H](O)NC(=O)[C@@H]5[C@@H](O)[C@@H](C)CN5C(=O)[C@H]([C@H](O)CC(N)=O)NC(=O)[C@H]([C@H](O)[C@@H](O)c5ccc(O)c(OS(=O)(=O)O)c5)NC(=O)[C@@H]5C[C@@H](O)CN5C(=O)[C@H]([C@@H](C)O)NC4=O)cc3)no2)cc1` [micafungin] (X1-[Orn(4R-OH,5R-OH)]T[Hyp][hTyr(3S-OH,4S-OH,3'-OSO3H)][Gln(3R-OH)][Pro(3S-OH,4S-Me)]; lactam 1-C) the “phenotype of the strain” value ([1]; 6.5 h at 30° C.) was “sensitive (an increase in the chitin level greater than or equal to 20% is observed compared to the chitin level of a population of cells of said fungus in the absence of antifungal agent, as well as a decrease in the number of cells of at least 0.3 log)”, the “decrease of the number of cells” value ([1]; 6.5 h at 30° C.) was “at least 0.3 log” and the “increase of the chitin level” value ([1]; 6.5 h at 30° C.) was “greater than or equal to 20%”. For the same compound, the MIC ([2]; ATCC22019, 24 h) was 0.19 µg/mL (≈ 0.15 µM), the “phenotype by Etest MIC, interpretation” value [2, 6] was “sensitive” and the “phenotype of the strain” value ([3]; 24 h at 30° C.) was “sensitive (an increase in the chitin level greater than or equal to 20% is observed compared to the chitin level of a population of cells of said fungus in the absence of antifungal agent, as well as a decrease in the number of cells of at least 0.3 log)”. For the same compound, the “decrease of the number of cells” value ([3]; 24 h at 30° C.) was “at least 0.3 log”, the “increase of the chitin level” value ([3]; 24 h at 30° C., concentration gradient up to 1 μg/ml) was “greater than or equal to 20%” and the MIC ([4]; ATCC7349, 24 h) was 0.016 µg/mL (≈ 0.0126 µM). The “phenotype by Etest MIC, interpretation” value [4, 6] was “sensitive”.

For `C[C@@H](c1ncncc1F)[C@](O)(Cn1cncn1)c1ccc(F)cc1F` [voriconazole], the “phenotype of the strain” value ([1]; 6.5 h at 30° C.) was “sensitive (an increase in the chitin level greater than or equal to 20% is observed compared to the chitin level of a population of cells of said fungus in the absence of antifungal agent, as well as a decrease in the number of cells of at least 0.3 log)”, the “decrease of the number of cells” value ([1]; 6.5 h at 30° C.) was “at least 0.3 log” and the “increase of the chitin level” value ([1]; 6.5 h at 30° C.) was “greater than or equal to 20%”. For the same compound, the MIC [2, 5] was 0.023 µg/mL (≈ 0.0658 µM), the “phenotype by Etest MIC, interpretation” value [2, 6] was “sensitive” and the “phenotype of the strain” value ([3]; 6.5 h at 30° C.) was “sensitive (an increase in the chitin level greater than or equal to 20% is observed compared to the chitin level of a population of cells of said fungus in the absence of antifungal agent, as well as a decrease in the number of cells of at least 0.3 log)”. The “decrease of the number of cells” value ([3]; 6.5 h at 30° C.) was “at least 0.3 log”, the “increase of the chitin level” value [3, 7] was “greater than or equal to 20%” and the MIC [4, 8] was 0.023 µg/mL (≈ 0.0658 µM). The “phenotype by Etest MIC, interpretation” value [4, 6] was “sensitive”.

Source: US11415513B2, “Method for determining the degree of sensitivity of a strain of fungus to an antifungal agent” (UNIVERSITE GRENOBLE ALPES, priority 2015, dated 2022)
